Active and inactive are the calls of the source. The calls are words filed in the database; no cut-off is given here.
What was measured:
[1] = molecular target: NACHT, LRR and PYD domains-containing protein 3 (Mus musculus) (UniProt Q8R4B8); experiment: Inhibition of NLRP3 inflammasome activation in LPS-primed mouse J774.A1 cells assessed as reduction in IL-1beta secretion preincubated for 1 hr followed by nigericin stimulation and measured after 1 hr by ELISA; type: cell-based; settings: time 2.0 hrs, DDE = dose-dependent effect
HEK293 = experiment: Cytotoxicity against HEK293 cells at less than 20 uM incubated for 24 hrs; type: toxicity, cell-based; settings: human, hek293, 24 h
[2] = molecular target: NACHT, LRR and PYD domains-containing protein 3 (Mus musculus) (UniProt Q8R4B8); experiment: Inhibition of NLRP3 inflammasome activation in LPS-primed mouse J774.A1 cells assessed as inhibition of release of IL-1 beta preincubated for 1 hr followed by nigericin stimulation and measured after 1 hr by ELISA; type: cell-based; settings: dose 7.5-60 nM, time 2.0 hrs, DDE = dose-dependent effect
[3] = molecular target: NLR family CARD domain-containing protein 4 (Mus musculus) (UniProt Q3UP24); experiment: Inhibition of NLRC4 inflammasome activation in LPS-primed mouse BMDM cells assessed as reduction in IL-1beta secretion at 7.5 to 60 nM preincubated for 1 hr followed by FLA-ST Ultrapure stimulation by ELISA; type: cell-based; settings: dose 7.5-60 nM
[4] = molecular target: NLR family CARD domain-containing protein 4 (Mus musculus) (UniProt Q3UP24); experiment: Inhibition of NLRC4 inflammasome activation in LPS-primed mouse BMDM cells assessed as reduction in IL-1beta secretion at 7.5 to 60 nM preincubated for 1 hr followed by poly (dA/dT) stimulation by ELISA; type: cell-based; settings: dose 7.5-60 nM
[5] = molecular target: T1, Interferon-inducible protein AIM2 (Mus musculus) (UniProt Q91VJ1); experiment: Inhibition of AIM2 inflammasome activation in LPS-primed mouse BMDM cells assessed as reduction in IL-1beta secretion at 7.5 to 60 nM preincubated for 1 hr followed by FLA-ST Ultrapure stimulation by ELISA; type: cell-based; settings: dose 7.5-60 nM
T1 sequence (whole entry): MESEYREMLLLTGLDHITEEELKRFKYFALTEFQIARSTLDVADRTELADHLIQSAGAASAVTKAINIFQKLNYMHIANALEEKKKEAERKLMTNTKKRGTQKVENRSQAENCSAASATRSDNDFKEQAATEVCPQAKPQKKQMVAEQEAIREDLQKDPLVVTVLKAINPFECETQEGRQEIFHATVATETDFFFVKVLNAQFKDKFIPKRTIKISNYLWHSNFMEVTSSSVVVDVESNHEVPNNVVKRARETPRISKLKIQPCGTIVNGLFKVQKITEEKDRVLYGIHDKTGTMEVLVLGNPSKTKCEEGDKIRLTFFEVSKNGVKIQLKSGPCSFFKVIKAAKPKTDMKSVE

[6] = molecular target: NACHT, LRR and PYD domains-containing protein 3 (Mus musculus) (UniProt Q8R4B8); experiment: Inhibition of NLRP3 inflammasome activation in LPS-primed mouse J774.A1 cells assessed as inhibition of caspase-1 p20 subunit release in supernatant preincubated for 1 hr followed by nigericin stimulation measured after 1 hr by Western blot analysis; type: cell-based; settings: dose 7.5-60 nM, time 2.0 hrs, DDE = dose-dependent effect
[7] = molecular target: NACHT, LRR and PYD domains-containing protein 3 (Mus musculus) (UniProt Q8R4B8); experiment: Inhibition of NLRP3 inflammasome activation in LPS-stimulated mouse J774.A1 cells assessed as increase in polyubiquitinated NLRP3 preincubated for 1 hr followed by nigericin stimulation measured after 1 hr by immunoblot analysis; type: cell-based; settings: dose 7.5-60 nM, time 2.0 hrs, DDE = dose-dependent effect
[8] = molecular target: NACHT, LRR and PYD domains-containing protein 3 (Mus musculus) (UniProt Q8R4B8); experiment: Inhibition of NLRP3 inflammasome activation in LPS-stimulated mouse J774.A1 cells assessed as increase in c-Cbl expression at 7.5 to 60 nM preincubated for 1 hr followed by nigericin stimulation measured after 1 hr by immunoblot analysis; type: cell-based; settings: dose 7.5-60 nM, time 2.0 hrs
[9] = molecular target: NACHT, LRR and PYD domains-containing protein 3 (Mus musculus) (UniProt Q8R4B8); experiment: Inhibition of NLRP3 inflammasome activation in LPS-stimulated mouse J774.A1 cells assessed as increase in Cbl-b expression at 30 to 100 nM preincubated for 1 hr followed by nigericin stimulation measured after 1 hr by immunoblot analysis; type: cell-based; settings: dose 30-100 nM, time 2.0 hrs
[10] = molecular target: NACHT, LRR and PYD domains-containing protein 3 (Mus musculus) (UniProt Q8R4B8); experiment: Inhibition of NLRP3 inflammasome activation in LPS/nigericin stimulated mouse BMDM cells assessed as […] in ASC speck formation at 15 to 60 nM preincubated for 1 hr followed by LPS/nigericin stimulation by DAPI staining based immunofluorescence assay; type: cell-based; settings: dose 15-60 nM
J774.A1 [11] = experiment: Inhibition of NF-kappaB in LPS treated mouse J774.A1 cells assessed as reduction in p65 level at 60 nM incubated for 1 hr followed by LPS stimulation measured after 5 hrs by Western blot analysis; type: cell-based; settings: time 6.0 hrs
J774.A1 [12] = experiment: Inhibition of NF-kappaB in LPS treated mouse J774.A1 cells assessed as reduction in phosphorylated p65 level at 60 nM incubated for 1 hr followed by LPS stimulation measured after 5 hrs by Western blot analysis; type: cell-based; settings: time 6.0 hrs
J774.A1 [13] = experiment: Inhibition of NF-kappaB in LPS treated mouse J774.A1 cells assessed as reduction in TNFalpha level at 7.5 to 60 nM incubated for 1 hr followed by LPS stimulation measured after 5 hrs by Western blot analysis; type: cell-based; settings: dose 7.5-60 nM, time 6.0 hrs
J774.A1 [14] = experiment: Inhibition of NF-kappaB in LPS treated mouse J774.A1 cells assessed as reduction in pro-IL-1beta expression at 7.5 to 60 nM incubated for 1 hr followed by LPS stimulation measured after 5 hrs by Western blot analysis; type: cell-based; settings: dose 7.5-60 nM, time 6.0 hrs
[15] = Half life in Sprague-Dawley rat at 0.5 mg/kg, iv measured upto 24 hrs by liquid chromatography tandem mass spectrometry; type: ADME, organism-based; settings: in vivo
[16] = AUC (0 to infinity) in Sprague-Dawley rat at 0.5 mg/kg, iv measured upto 24 hrs by liquid chromatography tandem mass spectrometry; type: ADME, organism-based; set-up: time < 24 hrs, dose 0.5 mg/kg, route iv; settings: in vivo
[17] = Clearance in Sprague-Dawley rat at 0.5 mg/kg, iv measured upto 24 hrs by liquid chromatography tandem mass spectrometry; type: ADME, organism-based; settings: in vivo
[18] = Oral bioavailability in Sprague-Dawley rat at 1 mg/kg measured upto 24 hrs by liquid chromatography tandem mass spectrometry; type: ADME, organism-based; settings: in vivo
Mus musculus [19] = experiment: Protection against DSS-induced acute colitis in C57BL/6 mouse model assessed as improvement in loss of crypt architecture at 0.125 to 0.5 mg/kg, po administered for 10 days by Hematoxylin and eosin staining based analysis; type: functional, organism-based; settings: dose 0.125-0.5 mg/kg, time 10.0 day
Mus musculus [20] = experiment: Protection against DSS-induced C57BL/6 mouse ulcerative colitis model assessed as reduction in NLRP3 level in colon at 0.125 to 0.5 mg/kg, po by Western blot analysis; type: functional, organism-based; settings: dose 0.125-0.5 mg/kg

Chain of NACHT, LRR and PYD domains-containing protein 3 (Mus musculus) (Q8R4B8 whole entry, the tested form may be a part): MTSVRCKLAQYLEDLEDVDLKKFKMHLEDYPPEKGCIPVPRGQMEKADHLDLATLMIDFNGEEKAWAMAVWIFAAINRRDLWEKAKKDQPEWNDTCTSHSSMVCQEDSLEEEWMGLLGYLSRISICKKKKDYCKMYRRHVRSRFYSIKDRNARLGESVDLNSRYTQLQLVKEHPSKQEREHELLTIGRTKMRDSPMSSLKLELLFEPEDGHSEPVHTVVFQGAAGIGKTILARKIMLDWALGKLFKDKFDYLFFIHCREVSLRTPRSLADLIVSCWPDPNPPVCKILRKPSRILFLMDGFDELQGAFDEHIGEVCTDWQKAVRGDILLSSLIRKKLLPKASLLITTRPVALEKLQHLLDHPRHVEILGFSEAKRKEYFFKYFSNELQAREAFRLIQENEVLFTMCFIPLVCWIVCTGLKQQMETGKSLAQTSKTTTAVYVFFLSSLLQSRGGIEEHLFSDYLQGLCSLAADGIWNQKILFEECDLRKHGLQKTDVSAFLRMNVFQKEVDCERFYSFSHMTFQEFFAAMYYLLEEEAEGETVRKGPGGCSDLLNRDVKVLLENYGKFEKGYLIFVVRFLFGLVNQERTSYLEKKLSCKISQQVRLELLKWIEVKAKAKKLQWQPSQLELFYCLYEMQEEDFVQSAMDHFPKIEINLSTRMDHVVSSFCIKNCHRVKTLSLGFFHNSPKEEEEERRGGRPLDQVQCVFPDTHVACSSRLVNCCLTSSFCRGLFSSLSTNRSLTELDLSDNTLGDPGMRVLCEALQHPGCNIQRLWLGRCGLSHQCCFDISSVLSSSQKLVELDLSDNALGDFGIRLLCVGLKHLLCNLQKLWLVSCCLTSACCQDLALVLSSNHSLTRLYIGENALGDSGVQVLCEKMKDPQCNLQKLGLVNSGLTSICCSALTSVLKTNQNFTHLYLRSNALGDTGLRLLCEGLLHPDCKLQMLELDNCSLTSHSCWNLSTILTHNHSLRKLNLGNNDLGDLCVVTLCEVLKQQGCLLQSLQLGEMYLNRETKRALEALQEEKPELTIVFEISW
Chain of NLR family CARD domain-containing protein 4 (Mus musculus) (Q3UP24 whole entry, the tested form may be a part): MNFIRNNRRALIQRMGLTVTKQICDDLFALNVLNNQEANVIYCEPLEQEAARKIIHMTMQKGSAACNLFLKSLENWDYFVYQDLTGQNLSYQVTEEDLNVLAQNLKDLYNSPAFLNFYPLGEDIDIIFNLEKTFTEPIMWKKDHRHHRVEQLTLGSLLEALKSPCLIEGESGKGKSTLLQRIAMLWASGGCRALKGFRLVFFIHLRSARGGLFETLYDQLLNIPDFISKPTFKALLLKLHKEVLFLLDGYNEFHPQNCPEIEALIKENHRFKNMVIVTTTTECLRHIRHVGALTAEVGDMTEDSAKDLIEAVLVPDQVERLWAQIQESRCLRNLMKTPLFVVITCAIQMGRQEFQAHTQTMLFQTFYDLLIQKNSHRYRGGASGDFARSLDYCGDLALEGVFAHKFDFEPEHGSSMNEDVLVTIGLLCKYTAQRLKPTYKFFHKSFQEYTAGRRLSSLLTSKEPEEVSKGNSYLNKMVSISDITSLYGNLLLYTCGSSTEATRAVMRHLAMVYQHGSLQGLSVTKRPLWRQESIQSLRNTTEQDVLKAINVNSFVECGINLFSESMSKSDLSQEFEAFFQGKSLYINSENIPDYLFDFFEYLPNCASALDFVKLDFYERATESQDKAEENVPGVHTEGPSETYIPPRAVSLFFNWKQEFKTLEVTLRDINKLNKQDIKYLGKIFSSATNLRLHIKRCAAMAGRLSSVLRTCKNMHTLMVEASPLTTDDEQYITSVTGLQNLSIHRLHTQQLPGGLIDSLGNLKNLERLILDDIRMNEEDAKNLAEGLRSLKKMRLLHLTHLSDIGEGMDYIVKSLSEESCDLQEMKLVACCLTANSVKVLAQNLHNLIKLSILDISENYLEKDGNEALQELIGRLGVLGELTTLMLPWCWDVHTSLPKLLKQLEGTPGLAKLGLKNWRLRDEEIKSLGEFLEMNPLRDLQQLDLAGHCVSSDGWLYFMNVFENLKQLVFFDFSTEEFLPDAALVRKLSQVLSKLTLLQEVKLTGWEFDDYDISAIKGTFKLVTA

inhibition [1]: Dde
inhibition [2]: Dde
inhibition [3]: Active
inhibition [4]: Active
inhibition [5]: Active
inhibition [6]: Dde
Activity [7]: Dde
Activity [8]: Active
Activity [9]: Active
inhibition [10]: Active
t1/2 [15]: 4.73 h
AUC [16]: 448.8 ng·h/mL
clearance [17]: 18.8 mL/min/kg
bioavailability [18]: 48.1%
SMILES: CC(C)C[C@H](NC(=O)[C@H](Cc1ccccc1)NC(=O)c1c(F)cccc1F)B(O)O
Activity (HEK293): Non-Toxic
inhibition (J774.A1 [11]): Active
inhibition (J774.A1 [12]): Active
inhibition (J774.A1 [13]): Active
inhibition (J774.A1 [14]): Active
Activity (Mus musculus [19]): Active
Activity (Mus musculus [20]): Active

From ChEMBL document CHEMBL5113521, “Discovery of a Novel Oral Proteasome Inhibitor to Block NLRP3 Inflammasome Activation with Anti-inflammation Activity” (J Med Chem, 2022)
